# Experimental data published in US10238657B2, “Heterocyclic compounds for treating psoriasis” (JS INNOPHARM (SHANGHAI LTD.), priority 2015, dated 2019).
# What was measured:
# [1] = tested on: HaCaT cells; assay: In-vitro screening with MTT method, inhibition of proliferation of HaCaT cells; assay type: cell-based, human; conditions: Homo sapiens, HaCaT, about 48 hours incubation
# Description: Compound No. 5 was dissolved in DMSO, and gradiently diluted with PBS to prepare solutions at concentration of 1000 μg/ml, 100 μg/ml, 10 μg/ml, 1 μg/ml, 0.1 μg/ml, and 0.01 μg/ml, respectively. Cis-platinum (CDDP) was used as positive control, and sample solutions were prepared with the same method. The sample solutions were added into a 96-well plate placed with the growth phase human immortalized keratinocyte (HaCaT) cells (Pharmacology Laboratory of Shanghai Institute of Pharmaceutical Industry), and were incubated for about 48 hours. The cell relative survival rate was determined by the MTT method, and calculated according to the following formula based on the light absorption value at […]. Cell relative survival rate=(Light absorption value of sample treatment group—background light absorption value)/(Light absorption value of DMSO treatment group—background light absorption value).
# [2] = tested on: HaCaT cells; assay: Morphological examination of the effect on HaCaT cell differentiation; assay type: cell-based, human
# Description: HaCaT cells were cultured in DMEM culture medium containing 10% FBS under 37° C. and 5% CO2 concentration. When reaching 80% of the culture bottle area and after digestion by 0.25% trypsin, the cells were adjusted to a concentration of 4×10^4/ml and moved to a 6-well plate respectively (containing sterilized slide). Compound solutions were added. The cells were applied to the corresponding wells, and a blank control group (saline) was set. Both the sample groups and the control group were placed in a cell incubator at 37° C. Immumohistochemical staining was conducted after incubation at 48 h.
# The imagine in FIG. 1A is dark brown, indicating large amount of keratin is present. […] Compound No. 5 underwent cornification (positive result).
# [3] = tested on: chick chorioallantoic membrane; assay: Chick chorioallantoic membrane (CAM) angiogenesis model; assay type: in vivo, chicken; conditions: 100 μg/egg
# Description: Fresh eggs were incubated for 6 successive days under 37° C. and 50% humidity. On the 6th day, live eggs were identified and taken out for window-opening. First, the chorioallantoic membrane was located with illumination. Droplets of Compound No. […] After air dry, the filter paper was placed on the chorioallantoic membrane gently without contacting big vessels. The window was sealed with a transparent adhesive tape. The eggs were incubated for 48 hours continuously. The transparent adhesive tape was then uncovered. The window was enlarged and photos were taken under a dissecting microscope (FIGS. 2 A-B). New vessels were counted based on the number of blood vessel branch points in each photo. Inhibitory rate=100−[(number of new blood vessels in treatment group at 24 h)/(number of new blood vessels in treatment group at 0 h)]/[(number of blood vessels in negative control group at 24 h)/(number of blood vessels in negative control group at 0 h)]×100%.
# [4] = tested on: mouse tail epidermis; assay: Effect on mouse tail epidermis (granular layer of tail scales); assay type: in vivo; conditions: 100 μl once daily, 7 days, female mice, n = 10
# Description: 70 female mice were randomly divided into several groups: (a) saline control group, saline was used in each administration; (b) blank cream group, blank cream was used in each administration; (c) calcipotriol control group, calcipotriol in cream (5% w/w) was used in each administration; (d) four testing groups, Compound No 5 in cream at 0.5%, 1%, 2%, and 4% (w/w), respectively, was used in each administration. 100 μl of corresponding treatment was applied to the same position on the tail of the mice once daily for seven successive days. The mice were sacrificed 1 hour after the last application. The treated skin parts were taken for pathological examination, and the tail scales of each mouse was assessed under a microscope. The number of scales having a granular layer in every 100 scales was counted, and the result was expressed as percentage.
# [5] = tested on: mouse vaginal epidermal cells; assay: Effect on mitosis of mouse vaginal epidermal cells; assay type: in vivo; conditions: 25 μl intravaginal once daily, 3 days, estradiol-treated mice, n = 6
# Description: Except for the saline control group, sexually mature female mice were injected with estradiol subcutaneously at a dosage of 35 mg/kg for 3 successive days. On the fourth day, in-estrus mice were selected with vaginal smear. The mice were randomly divided into several groups: (a) saline control group, saline was used in each administration; (b) blank cream group, blank cream was used in each administration; (c) calcipotriol control group, calcipotriol in cream (5% w/w) was used in each administration; (d) four testing groups, Compound No 5 in cream at concentration of 0.5%, 1%, 2%, and 4% (w/w), respectively, was used in each application. 25 μl corresponding treatment was injected into the vagina of the mice once daily for 3 successive days. Colchicine (15 mg/Kg) was intraperitoneally injected 2 hours after the last dosing. The mice were sacrificed 6 hours after the injection of colchicine. The vaginal tissue was taken out for pathological examination. The number of mitosis in one hundred basal cells was counted, which was named as the mitotic index.
# [6] = tested on: guinea pig ear epidermis; assay: Propranolole hydrochloride-induced psoriasis in guinea pig model; assay type: in vivo; conditions: 200 μl on both ears twice daily, 7 days
# Description: Except for those in Saline control group, guinea pigs were treated with propranolole hydrochloride cream (5% w/w, 200 μl) uniformly applied on the back of both ears twice daily for four successive weeks. After four weeks, the […] were divided into several groups, namely, blank cream group, calcipotriol group, and four testing cream groups with Compound 5 at concentration of 0.5%, 1%, 2%, and 4% (w/w)), respectively. The guinea pigs in Saline control group were treated with saline on the back of both ears; the guinea pigs in other groups were treated with corresponding cream on the back of both ears (200 μl) twice daily for 7 successive days. The guinea pigs were examined during the experiment period and sacrificed 1 hour after the last dosing.
smiles,measurement,setting,value
"Cc1cnc(Nc2ccc(F)cc2Cl)nc1-c1cc2n(c1)CCN([C@H](CO)c1cccc(Cl)c1)C2=O [Compound 5, (S)-7-(2-((2-chloro-4-fluorophenyl)amino)-5-methylpyrimidin-4-yl)-2-(1-(3-chlorophenyl)-2-hydroxyethyl)-3,4-dihydropyrrolo[1,2-a]pyrazin-1(2H)-one]",IC50,[1],544 µg/mL
same,"Differentiation of HaCaT cells (keratin, cornification)","[2]; 100 μg/ml, 48 h, inverted microscope x200, FIG. 1A",induced differentiation of HaCaT cells
same,"Test Results, effect on HaCat cell differentiation","[2]; 48 h incubation, immunohistochemical staining",Positive
same,Number of new blood vessels 0 h,"[3]; 0 h, n = 3",18.83 ± 5.60
same,Number of new blood vessels 48 h,"[3]; 48 h, n = 3",16.00 ± 5.73
same,Inhibitory rate (%),"[3]; 48 h, versus PBS group",125.76%
same,Scales quantity in granular layer * 100%,[4]; cream 0.5% (w/w),42.40 ± 3.03 %
same,Scales quantity in granular layer * 100%,[4]; cream 1% (w/w),47.00 ± 5.29 %
same,Scales quantity in granular layer * 100%,[4]; cream 2% (w/w),50.80 ± 7.50 %
same,Scales quantity in granular layer * 100%,[4]; cream 4% (w/w),58.80 ± 7.64 %
same,Mitotic cell number/total cell number (%),[5]; cream 0.5% (w/w),18.33 ± 1.86 %
same,Mitotic cell number/total cell number (%),[5]; cream 1% (w/w),15.00 ± 3.35 %
same,Mitotic cell number/total cell number (%),[5]; cream 2% (w/w),14.83 ± 2.48 %
same,Mitotic cell number/total cell number (%),[5]; cream 4% (w/w),14.50 ± 3.62 %
same,Epidermal thickness (μm),[6]; cream 0.5% w/w,190.31 ± 17.89 μm
same,Epidermal thickness (μm),[6]; cream 1% w/w,180.74 ± 11.05 μm
same,Epidermal thickness (μm),[6]; cream 2% w/w,156.59 ± 13.25 μm
same,Epidermal thickness (μm),[6]; cream 4% w/w,128.96 ± 13.61 μm
